Test results taken from patent US6569894B1, “Arylalkylbenzofuran derivatives as melatonergic agents” (Bristol-Myers Squibb Company, priority 2001, dated 2003).

Assays:
[1] = biological target: T1, ML1a receptor (Homo sapiens, UniProt P48039); test: Melatonergic receptor binding activity, 2-[125I]-iodomelatonin, ML1a; settings: membrane homogenates of NIH-3T3 cells, 37° C. for 1 hour
T1 construct: expressed in transfected cells; pcDNA3)
Description: (§1) Melatonergic Receptor Binding Activity
(§2) (a) TME=50 mM Tris buffer containing 12.5 mM MgCl2, and 2 mM EDTA, pH 7.4 at 37° C., with concentrated HCl.
(§3) (b) Wash buffer: 20 mM Tris base containing 2 mM MgCl2, pH 7.4 at room temperature.
(§4) (c) 10^−4 M melatonin (10^−5 M final concentration).
(§5) (d) 2-[^125I]-iodomelatonin, […] final concentration.
2. Membrane Homogenates: The melatonin ML1α receptor cDNA was subcloned into pcDNA3 and introduced into NIH-3T3 cells using Lipofectamine. Transformed NIH-3T3 cells resistant to geneticin (G-418) were isolated, and single colonies expressing high levels of 2-[^125I]-iodomelatonin binding were isolated. Cells are maintained in DMEM supplemented with 10% calf serum and G-418 (0.5 g/liter). Cells are grown to confluency in T-175 flasks, scraped using Hank's balanced salt solution, and frozen at −80° C. For preparing membrane homogenates, pellets are thawed on ice, and re-suspended in TME buffer in the presence of 10 μg/ml aprotinin and leupeptin, and 100 μM phenylmethylsulfonylfluoride. The cells were then homogenized using a dounce homogenizer, and centrifuged. The resulting pellet was re-suspended with dounce homogenizer in TME (supplemented with the above protease inhibitors) and frozen. On the day of assay, a small aliquot was thawed on ice and re-suspended in the ice cold TME (1:50-1:100 v/v) and held on ice until assayed.
(§6) 3. Incubation: 37° C. for 1 hour. Reaction is terminated by filtration. Filters were washed 3 times.
(§7) The compounds of the present invention have affinity for receptors of the endogenous pineal hormone, melatonin, as determined in a receptor binding assays described above in Tables I to V for the ML1a and ML1b (human) receptors. Melatonin is involved in the regulation of a variety of biological rhythms and exerts its biological effects via interaction with specific receptors. There is evidence that administration of melatonin agonists are of clinical utility in the treatment of various conditions regulated by melatonin activity. Such conditions include depression, jet-lag, work-shift syndrome, sleep disorders, glaucoma, some disorders associated with reproduction, cancer benign prostatic hyperplasia, immune disorders and neuroendocrine disorders.

[2] = biological target: T2, ML1b receptor (Homo sapiens, UniProt P49286); test: Melatonergic receptor binding activity, 2-[125I]-iodomelatonin, ML1b; settings: 37° C. for 1 hour
T2 construct: expressed in transfected cells
T2 sequence (P49286 1-362): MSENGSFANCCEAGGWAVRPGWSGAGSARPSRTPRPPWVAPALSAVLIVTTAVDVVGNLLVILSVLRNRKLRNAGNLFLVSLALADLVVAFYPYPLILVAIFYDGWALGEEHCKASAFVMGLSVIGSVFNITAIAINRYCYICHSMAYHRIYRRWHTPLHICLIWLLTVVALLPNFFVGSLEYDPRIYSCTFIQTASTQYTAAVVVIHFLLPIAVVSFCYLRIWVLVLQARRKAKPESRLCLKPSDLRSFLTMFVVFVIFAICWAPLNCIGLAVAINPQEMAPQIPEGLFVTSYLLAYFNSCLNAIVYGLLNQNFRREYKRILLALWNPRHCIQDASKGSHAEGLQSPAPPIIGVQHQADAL
Description: as §1, §2, §3, §4, §5, §6, §7

T1 sequence (P48039 whole entry): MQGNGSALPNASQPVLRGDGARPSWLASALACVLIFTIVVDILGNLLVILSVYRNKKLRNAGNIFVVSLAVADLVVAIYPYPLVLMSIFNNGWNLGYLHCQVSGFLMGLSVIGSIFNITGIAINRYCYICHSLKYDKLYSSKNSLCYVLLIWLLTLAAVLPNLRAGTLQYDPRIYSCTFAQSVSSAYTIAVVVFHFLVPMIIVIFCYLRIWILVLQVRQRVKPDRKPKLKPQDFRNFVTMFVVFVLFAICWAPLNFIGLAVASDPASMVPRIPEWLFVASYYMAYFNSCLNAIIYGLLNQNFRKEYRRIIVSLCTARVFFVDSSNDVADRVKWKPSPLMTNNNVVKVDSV

An IC50 ([1]; Table IV) of under 10 nM and an IC50 ([2]; Table IV) of 10 to 250 nM were found for `CC(=O)NC[C@H]1C[C@@H]1c1cccc2oc(CCCCc3ccccc3)cc12` (racemic) [Example 28, N-({(1R,2R)-2-[2-(4-Phenylbutyl)benzo[b]furan-4-yl]-cyclopropyl}methyl)acetamide] in this work.
An IC50 ([1]; Table IV) of under 10 nM and an IC50 ([2]; Table IV) of under 10 nM were found for `CCC(=O)NC[C@H]1C[C@@H]1c1cccc2oc(CCCCc3ccccc3)cc12` (racemic) [Example 31, N-({(1R,2R)-2-[2-(4-Phenylbutyl)benzo[b]furan-4-yl]-cyclopropyl}methyl)propanamide] in this work.
An IC50 ([1]; Table IV) of 10 to 250 nM and an IC50 ([2]; Table IV) of 10 to 250 nM were found for `CCCC(=O)NC[C@H]1C[C@@H]1c1cccc2oc(CCCCc3ccccc3)cc12` (racemic) [Example 32, N-({(1R,2R)-2-[2-(4-Phenylbutyl)benzo[b]furan-4-yl]-cyclopropyl}methyl)butanamide] in this work.
An IC50 ([1]; Table IV) of 10 to 250 nM and an IC50 ([2]; Table IV) of 10 to 250 nM were found for `CC(C)C(=O)NC[C@H]1C[C@@H]1c1cccc2oc(CCCCc3ccccc3)cc12` (racemic) [Example 33, N-({(1R,2R)-2-[2-(4-Phenylbutyl)benzo[b]furan-4-yl]-cyclopropyl}methyl)-2-methylpropanamide] in this work.
An IC50 ([1]; Table IV) of 10 to 250 nM and an IC50 ([2]; Table IV) of 10 to 250 nM were found for `O=C(NC[C@H]1C[C@@H]1c1cccc2oc(CCCCc3ccccc3)cc12)C1CC1` (racemic) [Example 34, N-({(1R,2R)-2-[2-(4-Phenylbutyl)benzo[b]furan-4-yl]-cyclopropyl}methyl)cyclopropylcarboxamide] in this work.
An IC50 ([1]; Table IV) of under 10 nM and an IC50 ([2]; Table IV) of 10 to 250 nM were found for `CC(=O)NC[C@H]1C[C@@H]1c1cccc2oc(CCCCc3ccccc3)cc12` (single isomer, unassigned) [Example 29] in this work.
An IC50 ([1]; Table IV) of 10 to 250 nM and an IC50 ([2]; Table IV) of over 250 nM were found for `CC(=O)NC[C@H]1C[C@@H]1c1cccc2oc(CCCCc3ccccc3)cc12` (single isomer, unassigned) [Example 30] in this work.
An IC50 ([1]; Table I) of under 10 nM and an IC50 ([2]; Table I) of 10 to 250 nM were found for `CCC(=O)NCCCc1cccc2c1C[C@H](CCCCc1ccccc1)O2` (stereo in doubt) [Example 2, N-[3-[2-(4-Phenylbutyl)-2,3-dihydrobenzofuran-4-yl]propyl]propionamide] in this work.
An IC50 ([1]; Table I) of under 10 nM and an IC50 ([2]; Table I) of 10 to 250 nM were found for `CC(C)C(=O)NCCCc1cccc2c1C[C@H](CCCCc1ccccc1)O2` (stereo in doubt) [Example 4, N-[3-[2-(4-Phenylbutyl)-2,3-dihydrobenzofuran-4-yl]propyl]-2-methylpropionamide] in this work.
An IC50 ([1]; Table IV) of 10 to 250 nM and an IC50 ([2]; Table IV) of 10 to 250 nM were found for `CCNC(=O)NC[C@@H]1C[C@H]1c1cccc2oc(CCCCc3ccccc3)cc12` (stereo in doubt) [Example 35, N-({(1R,2R)-2-[2-(4-Phenylbutyl)benzo[b]furan-4-yl]-cyclopropyl}methyl)(ethylamino)carboxamide] in this work.
An IC50 ([1]; Table IV) of under 10 nM and an IC50 ([2]; Table IV) of 10 to 250 nM were found for `CC(=O)NC[C@@H]1C[C@H]1c1cccc2oc(CCCCc3ccc(F)cc3)cc12` (stereo in doubt) [Example 36, N-[((1R,2R)-2-{2-[4-(4-Fluorophenyl)butyl]benzo[b]furan-4-yl}-cyclopropyl)methyl]acetamide] in this work.
An IC50 ([1]; Table IV) of under 10 nM and an IC50 ([2]; Table IV) of 10 to 250 nM were found for `CCC(=O)NC[C@@H]1C[C@H]1c1cccc2oc(CCCCc3ccc(F)cc3)cc12` (stereo in doubt) [Example 37, N-[((1R,2R)-2-{2-[4-(4-Fluorophenyl)butyl]benzo[b]furan-4-yl}-cyclopropyl)methyl]propanamide] in this work.
An IC50 ([1]; Table IV) of 10 to 250 nM and an IC50 ([2]; Table IV) of 10 to 250 nM were found for `CCCC(=O)NC[C@@H]1C[C@H]1c1cccc2oc(CCCCc3ccc(F)cc3)cc12` (stereo in doubt) [Example 38, N-[((1R,2R)-2-{2-[4-(4-Fluorophenyl)butyl]benzo[b]furan-4-yl}-cyclopropyl)methyl]butanamide] in this work.
An IC50 ([1]; Table IV) of 10 to 250 nM and an IC50 ([2]; Table IV) of 10 to 250 nM were found for `CC(C)C(=O)NC[C@@H]1C[C@H]1c1cccc2oc(CCCCc3ccc(F)cc3)cc12` (stereo in doubt) [Example 39, N-[((1R,2R)-2-{2-[4-(4-Fluorophenyl)butyl]benzo[b]furan-4-yl}-cyclopropyl)methyl]-2-methylpropanamide] in this work.
An IC50 ([1]; Table IV) of 10 to 250 nM and an IC50 ([2]; Table IV) of 10 to 250 nM were found for `O=C(NC[C@@H]1C[C@H]1c1cccc2oc(CCCCc3ccc(F)cc3)cc12)C1CC1` (stereo in doubt) [Example 40, N-[((1R,2R)-2-{2-[4-(4-Fluorophenyl)butyl]benzo[b]furan-4-yl}-cyclopropyl)methyl]cyclopropylcarboxamide] in this work.
An IC50 ([1]; Table I) of under 10 nM and an IC50 ([2]; Table I) of 10 to 250 nM were found for `CCCC(=O)NCCCc1cccc2c1C[C@H](CCCCc1ccccc1)O2` [Example 3, N-[3-[2-(4-Phenylbutyl)-2,3-dihydrobenzofuran-4-yl]propyl]butyramide] in this work.
An IC50 ([1]; Table II) of 10 to 250 nM and an IC50 ([2]; Table II) of 10 to 250 nM were found for `CC(=O)NCCCc1cccc2oc(CCCCc3ccccc3)cc12` [Example 9, N-[3-[2-(4-Phenylbutyl)benzofuran-4-yl]propyl]acetamide] in this work.
An IC50 ([1]; Table II) of under 10 nM and an IC50 ([2]; Table II) of 10 to 250 nM were found for `CCC(=O)NCCCc1cccc2oc(CCCCc3ccccc3)cc12` [Example 10, N-[3-[2-(4-Phenylbutyl)benzofuran-4-yl]propyl]propionamide] in this work.
An IC50 ([1]; Table II) of 10 to 250 nM and an IC50 ([2]; Table II) of 10 to 250 nM were found for `CCCC(=O)NCCCc1cccc2oc(CCCCc3ccccc3)cc12` [Example 11, N-[3-[2-(4-Phenylbutyl)benzofuran-4-yl]propyl]butyramide] in this work.
An IC50 ([1]; Table II) of under 10 nM and an IC50 ([2]; Table II) of 10 to 250 nM were found for `CC(C)C(=O)NCCCc1cccc2oc(CCCCc3ccccc3)cc12` [Example 12, N-[3-[2-(4-Phenylbutyl)benzofuran-4-yl]propyl]-2-methyl Propionamide] in this work.
An IC50 ([1]; Table III) of over 250 nM and an IC50 ([2]; Table III) of over 250 nM were found for `O=C(NCCCc1cccc2oc(CCCCc3ccc(C(F)(F)F)cc3)cc12)C1CC1` [Example 13, N-[3-[2-[4-(4-Trifluoromethylphenyl)butyl]benzofuran-4-yl]propyl]-cyclopropane Carboxamide] in this work.
An IC50 ([1]; Table III) of 10 to 250 nM and an IC50 ([2]; Table III) of over 250 nM were found for `CCNC(=O)NCCCc1cccc2oc(CCCCc3ccc(C(F)(F)F)cc3)cc12` [Example 14, N-[3-[2-[4-(4-Trifluoromethylphenyl)butyl]benzofuran-4-yl]propyl]-N′-ethyl Urea] in this work.
An IC50 ([1]; Table III) of 10 to 250 nM and an IC50 ([2]; Table III) of over 250 nM were found for `CC(=O)NCCCc1cccc2oc(CCCCc3ccc(C(F)(F)F)cc3)cc12` [Example 15, N-[3-[2-[4-(4-Trifluoromethylphenyl)butyl]benzofuran-4-yl]propyl]-acetamide] in this work.
An IC50 ([1]; Table III) of 10 to 250 nM and an IC50 ([2]; Table III) of 10 to 250 nM were found for `CCC(=O)NCCCc1cccc2oc(CCCCc3ccc(C(F)(F)F)cc3)cc12` [Example 16, N-[3-[2-[4-(4-Trifluoromethylphenyl)butyl]benzofuran-4-yl]propyl]-propionamide] in this work.
An IC50 ([1]; Table III) of 10 to 250 nM and an IC50 ([2]; Table III) of 10 to 250 nM were found for `CCCC(=O)NCCCc1cccc2oc(CCCCc3ccc(C(F)(F)F)cc3)cc12` [Example 17, N-[3-[2-[4-(4-Trifluoromethylphenyl)butyl]benzofuran-4-yl]propyl]-butyramide] in this work.
An IC50 ([1]; Table III) of 10 to 250 nM and an IC50 ([2]; Table III) of over 250 nM were found for `CC(C)C(=O)NCCCc1cccc2oc(CCCCc3ccc(C(F)(F)F)cc3)cc12` [Example 18, N-[3-[2-[4-(4-Trifluoromethylphenyl)butyl]benzofuran-4-yl]propyl]-isobutyramide] in this work.
An IC50 ([1]; Table IV) of 10 to 250 nM and an IC50 ([2]; Table IV) of over 250 nM were found for `CCNC(=O)NC[C@H]1C[C@@H]1c1cccc2oc(CCCCc3ccc(F)cc3)cc12` [Example 41, N-[((1R,2R)-2-{2-[4-(4-Fluorophenyl)butyl]benzo[b]furan-4-yl-}-cyclopropyl)methyl](ethylamino)carboxamide] in this work.
An IC50 ([1]; Table V) of under 10 nM and an IC50 ([2]; Table V) of under 10 nM were found for `CCC(=O)NC[C@@H]1C[C@H]1c1cccc2c1C[C@@H](CCCCc1ccccc1)O2` [Example 43, N-({2-[(2R)-2-(4-Phenylbutyl)(2,3-dihydrobenzo[b]furan-4-yl)]-(1R,2R)cyclopropyl}methyl)propanamide] in this work.
